Laboratory results published in patent publication US12156533B2, “Nicotine salt formulations for aerosol devices and methods thereof” (JUUL Labs, Inc., priority 2013, dated 2024).

Details: nicotine:tartaric acid 1:2 molar ratio; in PG, VG or any mixture of PG and VG at ambient conditions
Text: As used herein, weight percentage (w/w) refers to the weight of the individual component over the weight of the total formulation.

Compound: CN1CCCC1c1cccnc1.O=C(O)C(O)C(O)C(=O)O (stereo not shown) [nicotine bitartrate]
- concentration at which no solution is produced: ≥ 0.5 % (w/w) nicotine
